Test systems include NCI/ADR-RES; Hs-578T; SF-539; LOX IMVI; HT-29; PC-3; CCRF-CEM; TK-10; A549; SN12C; HOP-62; SK-MEL-5; MCF7; NCI-H23; Malme-3M; A498; SK-MEL-2; OVCAR-5; HOP-92.
Common to all, as to experiment: DTP human tumour cell line panel, 48 h

The structures appear in SMILES notation.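 How tested: cells in 96-well plates exposed to compound for 48 hours at five concentrations. At the GI50, growth is halved.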 The source made the active and inactive calls. No stated cut-off is given here; in the data, active = GI50 up to about 1.1 µM and inactive = higher.

One may read the GI50 as the concentration at which growth is held to half of that of the control. For the compound `CCSc1cc(C(=O)OC)c2n(c1=O)CCCC2`, the GI50 with NCI/ADR-RES, in the assay on Hs-578T, in the assay on SF-539, in the assay with LOX IMVI, in the assay on HT-29 and in the assay with PC-3 was > 100 µM (inactive) in each case. The GI50 in the assay with CCRF-CEM, in the assay on TK-10, in the assay on A549, in the assay with SN12C, in the assay on HOP-62 and in the assay with SK-MEL-5 was > 100 µM (inactive) throughout. Further, the GI50 with MCF7, with NCI-H23, in the assay with Malme-3M, with A498, with SK-MEL-2 and in the assay on OVCAR-5 was > 100 µM (inactive) throughout.
For the compound `C=C1CCC([N+](=O)[O-])[C@](C)(N=O)CC[C@@H]2C1CC2(C)C` (stereo partly drawn), the GI50 in the assay on NCI/ADR-RES was 22.8 µM (inactive); in the assay on Hs-578T, 17.6 µM (inactive); in the assay on LOX IMVI, 16.1 µM (inactive); in the assay on HT-29 it was 19.9 µM (inactive); in the assay with PC-3, 26.4 µM (inactive); in the assay on CCRF-CEM, 6.62 µM (inactive). The GI50 in the assay with TK-10 is 28.6 µM (inactive); with A549, 18.5 µM (inactive); with SN12C it was 32.4 µM (inactive); with HOP-62 it was 38.3 µM (inactive); with SK-MEL-5, 15.3 µM (inactive); with MCF7, 16.6 µM (inactive). In addition, the GI50 is 19.9 µM (inactive) with HOP-92; 17.2 µM (inactive) in the assay on NCI-H23; 22 µM (inactive) in the assay on Malme-3M; > 10 µM (inactive) in the assay on SK-MEL-2; 16.1 µM (inactive) in the assay with OVCAR-5.
Turning to `CCCCCC/C=C\CCCCCCCCCc1c(O)c(OC)cc(O)c1CN(C)C`, the GI50 with NCI/ADR-RES is 5.89 µM (inactive); in the assay on Hs-578T, 2.7 µM (inactive); in the assay on SF-539, 5.3 µM (inactive); in the assay with LOX IMVI, 3.2 µM (inactive); in the assay on HT-29 it was 4.44 µM (inactive); with PC-3 it was 2.96 µM (inactive). Besides, the GI50 was 0.887 µM (active) in the assay with CCRF-CEM; 14.6 µM (inactive) in the assay on TK-10; 4.04 µM (inactive) with A549; 4.83 µM (inactive) in the assay on SN12C; 12.8 µM (inactive) in the assay on HOP-62; 5.41 µM (inactive) in the assay with SK-MEL-5. Also, the GI50 is 2.55 µM (inactive) in the assay with MCF7; 8.61 µM (inactive) in the assay with NCI-H23; 17 µM (inactive) in the assay with A498; 20.7 µM (inactive) in the assay with SK-MEL-2; 14.5 µM (inactive) in the assay on OVCAR-5.
Regarding `Cc1cc(C)c(S(=O)(=O)N(CCCN)OCCCN)c(C)c1`, the GI50 in the assay with NCI/ADR-RES, in the assay with Hs-578T, in the assay on SF-539, with LOX IMVI, in the assay on HT-29 and in the assay on PC-3 was > 100 µM (inactive) in each case. In addition, the GI50 with CCRF-CEM was > 100 µM (inactive); in the assay with TK-10, > 100 µM (inactive); in the assay with A549 it was > 100 µM (inactive); in the assay with SN12C, > 100 µM (inactive); with HOP-62, 6.52 µM (inactive); in the assay with SK-MEL-5, > 100 µM (inactive). Further, the GI50 is > 100 µM (inactive) in the assay on MCF7; 64.1 µM (inactive) with HOP-92; > 100 µM (inactive) in the assay on NCI-H23; > 100 µM (inactive) with Malme-3M; > 100 µM (inactive) in the assay on SK-MEL-2; 0.881 µM (active) in the assay with OVCAR-5.
Regarding `CCC(=O)NCCc1c2c3c(ccnc3c3ncsc13)-c1ccccc1N2` [KUANONIAMINE C], the GI50 in the assay with NCI/ADR-RES is 4.99 µM (inactive); in the assay with Hs-578T, 0.368 µM (active); with SF-539, 1.06 µM (active); in the assay with LOX IMVI it was 1.05 µM (active); with HT-29, 0.541 µM (active); in the assay on PC-3, 1.41 µM (inactive). The GI50 in the assay with CCRF-CEM is 2.86 µM (inactive); in the assay with TK-10, 6.32 µM (inactive); in the assay with A549, 0.771 µM (active); with SN12C, 0.724 µM (active); with HOP-62, 2.94 µM (inactive); in the assay with SK-MEL-5 it was 2.72 µM (inactive). The concentration for 50% growth inhibition (GI50) in the assay on MCF7 is 0.0223 µM (active); in the assay with NCI-H23, 1.92 µM (inactive); in the assay on Malme-3M it was 2.62 µM (inactive); in the assay with A498 it was 0.989 µM (active); with SK-MEL-2 it was 43.2 µM (inactive); in the assay with OVCAR-5, 8.17 µM (inactive).
With `O=c1ccn(Cc2ccccc2CCl)c(=O)[nH]1`, the GI50 was 22.1 µM (inactive) in the assay on NCI/ADR-RES; 29.2 µM (inactive) with Hs-578T; 24 µM (inactive) in the assay on SF-539; 24.2 µM (inactive) in the assay on HT-29; 31.8 µM (inactive) in the assay with PC-3; 30.7 µM (inactive) in the assay on CCRF-CEM. Besides, the GI50 in the assay on TK-10 is 39.1 µM (inactive); with A549, 47.8 µM (inactive); in the assay on SN12C it was 27.6 µM (inactive); in the assay on HOP-62, 25.7 µM (inactive); in the assay with SK-MEL-5 it was 3 µM (inactive); in the assay with MCF7 it was 23.6 µM (inactive). Moreover, the GI50 is 57.9 µM (inactive) in the assay with HOP-92; 20.4 µM (inactive) with NCI-H23; 20.2 µM (inactive) in the assay with Malme-3M; 32.7 µM (inactive) in the assay on SK-MEL-2; 21.5 µM (inactive) in the assay with OVCAR-5.
Regarding `CCC(=O)NC(Nc1ccccc1F)(C(F)(F)F)C(F)(F)F`, the GI50 with NCI/ADR-RES, in the assay with Hs-578T, with SF-539, in the assay with LOX IMVI, in the assay on HT-29 and with PC-3 was > 100 µM (inactive) throughout. The GI50 in the assay on CCRF-CEM, in the assay on TK-10, in the assay with A549, in the assay on SN12C, in the assay on SK-MEL-5 and in the assay on MCF7 was > 100 µM (inactive) each time. For the same compound, the GI50 in the assay on HOP-92, in the assay with NCI-H23, in the assay on SK-MEL-2 and in the assay with OVCAR-5 was > 100 µM (inactive) throughout.
For `N#C/C(=C\c1ccc(F)cc1)c1nc(-c2cc3ccccc3oc2=O)cs1`, the GI50 in the assay with NCI/ADR-RES was 30.9 µM (inactive); with Hs-578T, 15.1 µM (inactive); with SF-539, 18 µM (inactive); in the assay with LOX IMVI, 87.7 µM (inactive); with HT-29 it was 40.1 µM (inactive); with PC-3, 31.7 µM (inactive). Moreover, the GI50 was > 100 µM (inactive) with CCRF-CEM; 16.4 µM (inactive) in the assay with TK-10; 55.5 µM (inactive) in the assay on A549; 74 µM (inactive) in the assay with SN12C; 8.28 µM (inactive) in the assay with HOP-62; 15.3 µM (inactive) in the assay on SK-MEL-5. In addition, the GI50 in the assay with MCF7 is 37.8 µM (inactive); in the assay on HOP-92, 10.3 µM (inactive); with Malme-3M, 15.7 µM (inactive); in the assay with SK-MEL-2, 30.3 µM (inactive); in the assay on OVCAR-5, > 100 µM (inactive).
